Reference: patent US9238666B2, “Phosphoramidic acid prodrugs of 5-[5-phenyl-4-(pyridin-2-ylmethylamino)quinazolin-2-yl] pyridine-3-sulfonamide” (BRISTOL-MYERS SQUIBB COMPANY, priority 2012, dated 2016)
≈ marks a conversion by molar mass, not a printed value. Read-outs that look alike come from different tables or passages of the source.

Assays:
[1] = Solubility at different pH conditions (equilibrium, 24 h, HPLC); format: physicochemical
Method: Protocol for Solubility Studies of the Compounds of Instant Disclosure The solubility of the compounds of the present invention have been evaluated at various pH levels. The solubility was tested using the procedure described below. Excess amount of powder compound was equilibrated with 1 mL of buffer in a 2 mL glass vial and the dispersion of the compound in buffer ensured by vortexing, followed by sonication. The vials were shaken at 300 rpm at room temperature for 24 h. After 24 h incubation, the slurry was filtered and the filtrate analyzed by HPLC for the quantification of the solubilized fraction of compound using a four point calibration curve. Note: The incubation time was decided based on the aqueous stability data. If the compound was stable in the buffer up to 24 hrs, then the solubility was measured after 24 hrs, otherwise kinetic solubility data is reported. The solubility data at different pH conditions at 24 h (mg/mL) is provided in below Table 1.

[2] = target: Kv1.5 channel of voltage-gated K+ channels (Homo sapiens, UniProt P22460); experiment: Kv1.5 channel inhibition; format: cell-based
Text: Assays to determine the degree of activity of a compound as an IKur inhibitor are well known in the art and are described in references such as J. Gen. Physiol., 101(4):513-543 (April 1993), and Br. J. Pharmacol., 115(2):267-274 (May 1995).
By displaying activity as inhibitors of the Kv1.5 channel of voltage-gated K+ channels, compounds of the present disclosure are expected to be useful in the treatment of human diseases associated with the Kv1.5 channel.

[3] = buffer, pH 1, aqueous buffer, thermodynamic from solid, pH 1, room temperature, read-out: Solubility at 24 h
[4] = buffer, pH 2, aqueous buffer, thermodynamic from solid, pH 2, room temperature, read-out: Solubility at 24 h
[5] = buffer, pH 3, aqueous buffer, thermodynamic from solid, pH 3, room temperature, read-out: Solubility at 24 h
[6] = buffer, pH 5, aqueous buffer, thermodynamic from solid, pH 5, room temperature, read-out: Solubility at 24 h
[7] = buffer, pH 6.5, aqueous buffer, thermodynamic from solid, pH 6.5, room temperature, read-out: Solubility at 24 h
[8] = buffer, pH 7.4, aqueous buffer, thermodynamic from solid, pH 7.4, room temperature, read-out: Solubility at 24 h

Sequence of Kv1.5 channel of voltage-gated K+ channels (P22460 whole entry): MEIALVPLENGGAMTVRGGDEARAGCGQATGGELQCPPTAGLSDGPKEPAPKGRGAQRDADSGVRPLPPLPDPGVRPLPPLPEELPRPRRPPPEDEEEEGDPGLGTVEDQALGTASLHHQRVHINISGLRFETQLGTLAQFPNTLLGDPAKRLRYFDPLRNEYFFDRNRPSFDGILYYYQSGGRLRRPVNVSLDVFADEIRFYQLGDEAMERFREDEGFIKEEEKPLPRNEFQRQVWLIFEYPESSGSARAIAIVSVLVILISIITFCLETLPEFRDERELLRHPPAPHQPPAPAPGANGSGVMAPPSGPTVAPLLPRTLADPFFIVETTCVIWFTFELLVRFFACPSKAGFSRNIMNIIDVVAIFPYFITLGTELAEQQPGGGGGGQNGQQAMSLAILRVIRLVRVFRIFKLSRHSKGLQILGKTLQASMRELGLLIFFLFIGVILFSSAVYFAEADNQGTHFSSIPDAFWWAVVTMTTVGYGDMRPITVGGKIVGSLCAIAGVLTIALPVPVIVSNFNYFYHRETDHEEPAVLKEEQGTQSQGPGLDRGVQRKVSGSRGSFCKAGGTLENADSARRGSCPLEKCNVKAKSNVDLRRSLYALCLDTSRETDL

| Structure (SMILES) | Solubility at 24 h ([1]; pH 1, room temperature) | Solubility at 24 h ([1]; pH 2, room temperature) | Solubility at 24 h ([1]; pH 3, room temperature) | Solubility at 24 h ([1]; pH 5, room temperature) | Solubility at 24 h ([1]; pH 6.5, room temperature) | Solubility at 24 h ([1]; pH 7.4, room temperature) | IC50 [2] | Solubility at 24 h [1, 3] | Solubility at 24 h [1, 4] | Solubility at 24 h [1, 5] | Solubility at 24 h [1, 6] | Solubility at 24 h [1, 7] | Solubility at 24 h [1, 8] |
| --- | --- | --- | --- | --- | --- | --- | --- | --- | --- | --- | --- | --- | --- |
| O=P(O)(O)NS(=O)(=O)c1cncc(-c2nc(NCc3ccccn3)c3c(-c4ccccc4)cccc3n2)c1 [Compound 3, Trisodium (5-(5-phenyl-4-((pyridin-2-ylmethyl)amino)quinazolin-2-yl)pyridin-3-yl)sulfonylphosphoramidate] | 750 µg/mL | 110 µg/mL | 20 µg/mL | 150 µg/mL | 4620 µg/mL | 7300 µg/mL |  |  |  |  |  |  |  |
| O=P(O)(O)NS(=O)(=O)c1cncc(-c2nc(NCc3ccccn3)c3c(-c4ccccc4)cccc3n2)c1 [Compound 8, Magnesium (5-(5-phenyl-4-((pyridin-2-ylmethyl)amino)quinazolin-2-yl)pyridin-3-yl)sulfonylphosphoramidate] | 600 µg/mL (≈ 1090 µM) | 20 µg/mL (≈ 36.5 µM) | 20 µg/mL (≈ 36.5 µM) | 30 µg/mL (≈ 54.7 µM) | 160 µg/mL (≈ 292 µM) | 190 µg/mL (≈ 346 µM) |  |  |  |  |  |  |  |
| O=P(O)(O)NS(=O)(=O)c1cncc(-c2nc(NCc3ccccn3)c3c(-c4ccccc4)cccc3n2)c1 [Compound 5, Tris-(5-(5-phenyl-4-((pyridin-2-ylmethyl)amino)quinazolin-2-yl)pyridin-3-yl)sulfonylphosphoramidate] | 1620 µg/mL (≈ 2950 µM) | 80 µg/mL (≈ 146 µM) | 30 µg/mL (≈ 54.7 µM) | 22 µg/mL (≈ 40.1 µM) | 2023 µg/mL (≈ 3690 µM) | 2514 µg/mL (≈ 4580 µM) |  |  |  |  |  |  |  |
| O=P(O)(O)NS(=O)(=O)c1cncc(-c2nc(NCc3ccccn3)c3c(-c4ccccc4)cccc3n2)c1 [Compound 7, Calcium (5-(5-phenyl-4-((pyridin-2-ylmethyl)amino)quinazolin-2-yl)pyridin-3-yl)sulfonylphosphoramidate] | 990 µg/mL | 120 µg/mL | 20 µg/mL | 70 µg/mL | 1150 µg/mL | 2410 µg/mL |  |  |  |  |  |  |  |
| O=P(O)(O)NS(=O)(=O)c1cncc(-c2nc(NCc3ccccn3)c3c(-c4ccccc4)cccc3n2)c1 [Compound 2, 5-(5-Phenyl-4-(pyridin-2-ylmethylamino)quinazolin-2-yl)pyridin-3-ylsulfonylphosphoramidic acid] | 250 µg/mL (≈ 456 µM) | 30 µg/mL (≈ 54.7 µM) | 10 µg/mL (≈ 18.2 µM) | 2 µg/mL (≈ 3.65 µM) | 110 µg/mL (≈ 201 µM) | 560 µg/mL (≈ 1020 µM) |  |  |  |  |  |  |  |
| O=P(O)(O)NS(=O)(=O)c1cncc(-c2nc(NCc3ccccn3)c3c(-c4ccccc4)cccc3n2)c1 [Compound 6, Tripotassium (5-(5-phenyl-4-((pyridin-2-ylmethyl)amino)quinazolin-2-yl)pyridin-3-yl)sulfonylphosphoramidate] | 290 µg/mL | 90 µg/mL | 70 µg/mL | 250 µg/mL | 300 µg/mL | >1070 µg/mL |  |  |  |  |  |  |  |
| NS(=O)(=O)c1cncc(-c2nc(NCc3ccccn3)c3c(-c4ccccc4)cccc3n2)c1 [Compound 1, 5-(5-phenyl-4-((pyridin-2-ylmethyl)amino)quinazolin-2-yl)pyridine-3-sulfonamide, reference compound] |  |  |  |  |  |  | 46 nM | 6400 µg/mL (≈ 13700 µM) | 410 µg/mL (≈ 875 µM) | < 1 µg/mL | < 1 µg/mL | < 1 µg/mL | < 1 µg/mL |
| O=P(O)(O)N(P(=O)(O)O)S(=O)(=O)c1cncc(-c2nc(NCc3ccccn3)c3c(-c4ccccc4)cccc3n2)c1 [Compound 10] |  |  |  |  |  |  |  | > 1740 µg/mL | > 4050 µg/mL | > 2110 µg/mL | > 5120 µg/mL | > 4580 µg/mL | > 1990 µg/mL |
